Test results: patent publication US20250289814A1, “COMPOUNDS AS PARP1 INHIBITIORS” (NINGBO NEWBAY TECHNOLOGY DEVELOPMENT CO., LTD., priority 2022, published 2025)
pIC50: −log10 of the molar value. Like-named read-outs stand apart in the source and are kept apart here.

Legend:
[1] = Caco2 (A-B/B-A) permeability; assay type: in vitro ADME; conditions: human; for efflux ratio at 120 min, 5 μM: Caco-2, pH 7.4, PappB-A/PappA-B, read-out: Caco2 efflux ratio (ER); for Papp A→B at 120 min, 5 μM: Caco-2, pH 7.4, apical-to-basolateral, read-out: Caco2 A-B apparent permeability (Papp); for Papp A→B at 120 min, 5 μM / Papp B→A at 120 min, 5 μM: HBSS pH 7.4, 120 min, 37° C.; for Papp B→A at 120 min, 5 μM: Caco-2, pH 7.4, basolateral-to-apical, read-out: Caco2 B-A apparent permeability (Papp)
Procedure: The apical-to-basolateral (A-B) and basolateral-to-apical (B-A) transport of 5 μM test compounds in HBSS (10 mM HEPES, pH 7.4) was measured across Caco-2 cell monolayers (cells sourced from American Type Culture Collection, Manassas, Virgina). Duplicate incubations were performed at approximately 37° C. for 120 min, with functionality of the test system confirmed using 5 μM propranolol and digoxin as control compounds. Aliquots (50 μL) from both apical and basolateral wells were transferred into two fresh 96-well plates and quenched with acetonitrile solution containing analytical internal standards. Samples were vortexed mixed, centrifuged and a 100 μL aliquot of the resulting supernatant mixed with an equal volume of ultra-pure water prior to analysis by UPLC-MS/MS. The concentrations of test compound and control compounds in the incubation medium of donor and receiver compartments at the beginning and the end of the incubation period were used to calculate the apparent permeability (Papp) from A-B and B-A directions. The efflux ratio (ER) was expressed as PappB-A/PappA-B. The integrity of the cell monolayers after 2 hours incubation was confirmed using the marker reagent Lucifer yellow.

DLD1-BRCA2−/− cells = test: Cell proliferation assay in DLD1-BRCA2−/− cell lines (CellTiter-Glo, 7 days); assay type: cell-based
Procedure: BRCA2 (−/−) cells cultured in RPMI 1640+10% FBS were harvested and diluted to a density of 1×10^4 cells/mL and 2×10^4 cells/mL, respectively. Cells (40 μL/well) were seeded into 384-well cell culture plates. Plates were covered and incubated at 37° C., 5% CO2 overnight prior to the addition of test compounds or vehicle. The plates were then incubated at 37° C., 5% CO2 for 7 days. On day 8, the plates were removed from incubator and equilibrated at room temperature for 15 minutes. CellTiter-Glo (40 μL, at 1:1 to culture medium) is added into each well and the plates were placed at room temperature for 30 min. Luminescence was measured using an Envision plate reader. The resultant data were analysed as follows; where LC is culture medium without cells:
% inhibition values for different test compound concentrations were calculated and fitted to a four parameter logistic plot in order to determine the IC50 value using XLfit

Work on CCc1cc2ncc([C@H](C)N3CC[C@@H](Oc4ccc(C(=O)NC)nc4)C3)cc2[nH]c1=O (single isomer, unassigned) [Compound 12, 5-(((R)-1-((enantiomer 1 or 2)-1-(7-ethyl-6-oxo-5,6-dihydro-1,5-naphthyridin-3-yl)ethyl)pyrrolidin-3-yl)oxy)-N-methylpicolinamide] yielded an efflux ratio at 120 min, 5 μM [1] of 10.3, a Papp A→B at 120 min, 5 μM [1] of 3.44 ×10⁻⁶ cm/s and a Papp B→A at 120 min, 5 μM [1] of 35.5 ×10⁻⁶ cm/s. The pIC50 (DLD1-BRCA2−/− cells; Homo sapiens, DLD-1, 168 h) was 7.65.
With CCc1cc2ncc(CN3CC(Oc4ccc(C(=O)NC)nc4)C[C@@H]3C)cc2[nH]c1=O (single isomer, unassigned) [Compound 22, 5-(((enantiomer 1 or 2, 5S)-1-((7-ethyl-6-oxo-5,6-dihydro-1,5-naphthyridin-3-yl)methyl)-5-methylpyrrolidin-3-yl)oxy)-N-methylpicolinamide] the pIC50 (DLD1-BRCA2−/− cells; Homo sapiens, DLD-1, 168 h) was less than 6.00.
For CCc1cc2ncc(CN3CC(Oc4ccc(C(=O)NC)nc4)C[C@@H]3C)cc2[nH]c1=O (single isomer, unassigned) [Compound 23, 5-(((enantiomer 1 or 2, 5S)-1-((7-ethyl-6-oxo-5,6-dihydro-1,5-naphthyridin-3-yl)methyl)-5-methylpyrrolidin-3-yl)oxy)-N-methylpicolinamide], the pIC50 (DLD1-BRCA2−/− cells) was less than 6.00.
With CCc1cc2ncc(CN3CC[C@@H](Cc4ccc(C(=O)NC)nc4)C3)cc2[nH]c1=O (single isomer, unassigned) [Compound 25, (enantiomer 1 or 2)-5-((1-((7-ethyl-6-oxo-5,6-dihydro-1,5-naphthyridin-3-yl)methyl)pyrrolidin-3-yl)methyl)-N-methylpicolinamide] the pIC50 (DLD1-BRCA2−/− cells; Homo sapiens, DLD-1, 168 h) was 6.52.
For CCc1cc2ncc(CN3CC[C@@H](Cc4ccc(C(=O)NC)nc4)C3)cc2[nH]c1=O (single isomer, unassigned) [Compound 26, (enantiomer 1 or 2)-5-((1-((7-ethyl-6-oxo-5,6-dihydro-1,5-naphthyridin-3-yl)methyl)pyrrolidin-3-yl)methyl)-N-methylpicolinamide], the pIC50 (DLD1-BRCA2−/− cells) was 6.72.
Compound CCc1cc2ncc(CN3CCC[C@@H](Oc4ccc(C(=O)NC)nc4)C3)cc2[nH]c1=O (single isomer, unassigned) [Compound 32, (enantiomer 1 or 2)-5-((1-((7-ethyl-6-oxo-5,6-dihydro-1,5-naphthyridin-3-yl)methyl)piperidin-3-yl)oxy)-N-methylpicolinamide] has a pIC50 (DLD1-BRCA2−/− cells; Homo sapiens, DLD-1, 168 h) of less than 6.00.
Work on CCc1cc2ncc(CN3CCC[C@@H](Oc4ccc(C(=O)NC)nc4)C3)cc2[nH]c1=O (single isomer, unassigned) [Compound 33, (enantiomer 1 or 2)-5-((1-((7-ethyl-6-oxo-5,6-dihydro-1,5-naphthyridin-3-yl)methyl)piperidin-3-yl)oxy)-N-methylpicolinamide] yielded a pIC50 (DLD1-BRCA2−/− cells) of less than 6.00.
With CCc1cc2ncc(CN3CC[C@@H](N(C)c4ccc(C(=O)NC)nc4)C3)cc2[nH]c1=O (single isomer, unassigned; enantiomer 1) [Compound 16, (enantiomer 1)-5-((1-((7-ethyl-6-oxo-5,6-dihydro-1,5-naphthyridin-3-yl)methyl)pyrrolidin-3-yl)(methyl)amino)-N-methylpicolinamide] the pIC50 (DLD1-BRCA2−/− cells) was less than 6.00.
CCc1cc2ncc(CN3CC[C@@H](N(C)c4ccc(C(=O)NC)nc4)C3)cc2[nH]c1=O (single isomer, unassigned; enantiomer 2) [Compound 17, (enantiomer 2)-5-((1-((7-ethyl-6-oxo-5,6-dihydro-1,5-naphthyridin-3-yl)methyl)pyrrolidin-3-yl)(methyl)amino)-N-methylpicolinamide] gave an efflux ratio at 120 min, 5 μM [1] of 9.14, a Papp A→B at 120 min, 5 μM [1] of 3.64 ×10⁻⁶ cm/s and a Papp B→A at 120 min, 5 μM [1] of 33.3 ×10⁻⁶ cm/s. It also gave a pIC50 (DLD1-BRCA2−/− cells) of 6.71.
CCc1cc2ncc(CN3CCC(Oc4ccc(C(=O)NC)nc4)C3)cc2[nH]c1=O (centres unmarked) [Compound 9, 5-((1-((7-ethyl-6-oxo-5,6-dihydro-1,5-naphthyridin-3-yl)methyl)pyrrolidin-3-yl)oxy)-N-methylpicolinamide] showed an efflux ratio at 120 min, 5 μM [1] of 10.3, a Papp A→B at 120 min, 5 μM [1] of 3.55 ×10⁻⁶ cm/s and a Papp B→A at 120 min, 5 μM [1] of 36.5 ×10⁻⁶ cm/s. It also gave a pIC50 (DLD1-BRCA2−/− cells; Homo sapiens, DLD-1, 168 h) of 7.84.
Compound CCc1cc2ncc(CN3CC(Oc4ccc(C(=O)NC)nc4)C3C)cc2[nH]c1=O (centres unmarked) [Compound 18, 5-((1-((7-ethyl-6-oxo-5,6-dihydro-1,5-naphthyridin-3-yl)methyl)-2-methylazetidin-3-yl)oxy)-N-methylpicolinamide] has a pIC50 (DLD1-BRCA2−/− cells; Homo sapiens, DLD-1, 168 h) of less than 6.00.
Work on CCc1cc2ncc(CN3CC[C@@H](Oc4cnc(C(=O)NC)c(F)c4)C3)cc2[nH]c1=O [Compound 27, (R)-5-((1-((7-ethyl-6-oxo-5,6-dihydro-1,5-naphthyridin-3-yl)methyl)pyrrolidin-3-yl)oxy)-3-fluoro-N-methylpicolinamide] yielded a pIC50 (DLD1-BRCA2−/− cells; Homo sapiens, DLD-1, 168 h) of 6.45.
Compound CCc1cc2ncc(CN3CCC(N(C)c4ccc(C(=O)NC)nc4)CC3)cc2[nH]c1=O [Compound 31, 5-((1-((7-ethyl-6-oxo-5,6-dihydro-1,5-naphthyridin-3-yl)methyl)piperidin-4-yl)(methyl)amino)-N-methylpicolinamide] has an efflux ratio at 120 min, 5 μM [1] of 8.81, a Papp A→B at 120 min, 5 μM [1] of 3.5 ×10⁻⁶ cm/s and a Papp B→A at 120 min, 5 μM [1] of 30.9 ×10⁻⁶ cm/s. The pIC50 (DLD1-BRCA2−/− cells; Homo sapiens, DLD-1, 168 h) was less than 6.00.
With CCc1cc2ncc(CN3CCCN(c4ccc(C(=O)NC)nc4)CC3)cc2[nH]c1=O [Compound 34, 5-(4-((7-ethyl-6-oxo-5,6-dihydro-1,5-naphthyridin-3-yl)methyl)-1,4-diazepan-1-yl)-N-methylpicolinamide] the pIC50 (DLD1-BRCA2−/− cells; Homo sapiens, DLD-1, 168 h) was less than 6.00.
CNC(=O)c1ccc(N2CCCN(Cc3cnc4cc(C)c(=O)[nH]c4c3)CC2)cn1 [Compound 35, N-methyl-5-(4-((7-methyl-6-oxo-5,6-dihydro-1,5-naphthyridin-3-yl)methyl)-1,4-diazepan-1-yl) picolinamide] showed a pIC50 (DLD1-BRCA2−/− cells; Homo sapiens, DLD-1, 168 h) of less than 6.00.
With CCc1cc2ncc(CN3C4CC3CN(c3ccc(C(=O)NC)nc3)C4)cc2[nH]c1=O [Compound 36, 5-(6-((7-ethyl-6-oxo-5,6-dihydro-1,5-naphthyridin-3-yl)methyl)-3,6-diazabicyclo [3.1.1]heptan-3-yl)-N-methylpicolinamide] the pIC50 (DLD1-BRCA2−/− cells; Homo sapiens, DLD-1, 168 h) was less than 6.00.
In the case of CCc1cc2ncc(CN3C4CCC3CN(c3ccc(C(=O)NC)nc3)C4)cc2[nH]c1=O [Compound 38, 5-(8-((7-ethyl-6-oxo-5,6-dihydro-1,5-naphthyridin-3-yl)methyl)-3,8-diazabicyclo [3.2.1]octan-3-yl)-N-methylpicolinamide], the pIC50 (DLD1-BRCA2−/− cells; Homo sapiens, DLD-1, 168 h) was less than 6.00.
Compound CCc1cc2ncc(CN3CC4CCC(C3)N4c3ccc(C(=O)NC)nc3)cc2[nH]c1=O [Compound 39, 5-(3-((7-ethyl-6-oxo-5,6-dihydro-1,5-naphthyridin-3-yl)methyl)-3,8-diazabicyclo [3.2.1]octan-8-yl)-N-methylpicolinamide] has a pIC50 (DLD1-BRCA2−/− cells; Homo sapiens, DLD-1, 168 h) of less than 6.00.
CNC(=O)c1ccc(N2CC3CN(Cc4cnc5cc(C)c(=O)[nH]c5c4)CC3C2)cn1 (centres unmarked) [Compound 41, N-methyl-5-(5-((7-methyl-6-oxo-5,6-dihydro-1,5-naphthyridin-3-yl)methyl)hexahydropyrrolo[3,4-c]pyrrol-2(1H)-yl)picolinamide] showed a pIC50 (DLD1-BRCA2−/− cells; Homo sapiens, DLD-1, 168 h) of less than 6.00.
For CNC(=O)c1ccc(O[C@@H]2CCN(Cc3cnc4cc(C)c(=O)[nH]c4c3)C2)cn1 [Compound 59, (R)-N-methyl-5-((1-((7-methyl-6-oxo-5,6-dihydro-1,5-naphthyridin-3-yl)methyl)pyrrolidin-3-yl)oxy)picolinamide], the pIC50 (DLD1-BRCA2−/− cells; Homo sapiens, DLD-1, 168 h) was 6.67.
